Read-outs that look alike come from different tables or passages of the source.
Columns and labels:
[1] = molecular target: CUL4A-DDB1-BPB interaction (Homo sapiens (Human), UniProt Q16531); experiment: AlphaLISA in vitro binding assay, CUL4A and DDB1-BPB binding; settings: inhibition of CUL4A and DDB1-BPB binding
Method in brief: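 Compound disruption of CUL4A binding to DDB1-BPB measured by AlphaLISA/AlphaScreen bead proximity in 384-well format. IC50 from nonlinear log(inhibitor)-vs-response curve fit.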

[2] = system: CUL4A^low T47D breast cancer cells; experiment: Cell killing in CUL4-low T47D cells (CellTiter Glo); assay type: cell-based; settings: Homo sapiens, 192 h, 8 days treatment
Method: EC50 indicates compound concentration can cause 50% cell killing in CUL4° ^w T47D cells (see Table 1, column 7). CUL4A^low T47D breast cancer cells were seeded in 96 well plate. […] Change fresh medium and compounds every 48 hours. After 8 days treatment, cell viability was examined by using CellTiter Glo kit (Promega #7570) following the manufacturer's guidelines (https://www.promega.com/-/media/files/resources/protocols/technical-bulletins/0/celltiter-glo-luminescent-cell-viability-assay-protocol.pdf?rev=0d95c232094b41daa06d0c110d1d916f&sc_lang=en, hereby incorporated by reference in its entirety for all purposes). EC50 concentration was calculated by Prism 8 XY analysis nonlinear regression (curve fit-Log(inhibitor) vs response). EC50 indicates cell killing potential in CUL4 low T47D cell line and the EC50 difference between CUL4^high and CUL4^low cells indicates the small molecule cause specific cell killing.
CUL4A^high MDA-MB-468, CUL4^low (T47D), and MCF7 breast cancer cells were seeded in 96 well plates separately. […] Replace with fresh medium and compounds every 48 hours. After 8 days treatment, cell viability was examined by CellTiter Glo kit (Promega #7570). First, transfer the appropriate volume (10 ml for Cat. #G7570) of CellTiter-Glo® Buffer into the amber bottle containing CellTiter-Glo® Substrate to reconstitute the lyophilized enzyme/substrate mixture. This forms the CellTiter-Glo® Reagent. Second, add CellTiter-Glo® Reagent in an equal volume (100 μl per well for 96-well plates) to all wells. Mix contents for 2 minutes on an orbital shaker to induce cell lysis. Incubate at room temperature for 15 minutes to stabilize luminescent signal. Then record luminescence. EC50 concentration was calculated by Prism 8 XY analysis nonlinear regression (curve fit-Log(inhibitor) vs response).

[3] = system: MCF7 breast cancer cells; experiment: Cell killing in MCF7 cells (CellTiter Glo); assay type: cell-based; settings: Homo sapiens, MCF7, 192 h; Table 3, 0 to 20 μM compound, 8 days treatment
Method: CUL4A^high MDA-MB-468, CUL4^low (T47D), and MCF7 breast cancer cells were seeded in 96 well plates separately. Cells were treated with DMSO, or from 0 to 20 μM compound respectively. Replace with fresh medium and compounds every 48 hours. After 8 days treatment, cell viability was examined by CellTiter Glo kit (Promega #7570). First, transfer the appropriate volume (10 ml for Cat. #G7570) of CellTiter-Glo® Buffer into the amber bottle containing CellTiter-Glo® Substrate to reconstitute the lyophilized enzyme/substrate mixture. This forms the CellTiter-Glo® Reagent. Second, add CellTiter-Glo® Reagent in an equal volume (100 μl per well for 96-well plates) to all wells. Mix contents for 2 minutes on an orbital shaker to induce cell lysis. Incubate at room temperature for 15 minutes to stabilize luminescent signal. Then record luminescence. EC50 concentration was calculated by Prism 8 XY analysis nonlinear regression (curve fit-Log(inhibitor) vs response).

[4] = molecular target: T1, DDB1-BPB (Homo sapiens (Human), UniProt Q16531); experiment: Microscale Thermophoresis (MST) binding to DDB1-BPB; settings: labeled DDB1-BPB, 25° C.
Method: Kd represents dissociation constant, which measures the affinity of small molecule binding to the scaffold DDB1-BPB by Microscale Thermophoresis (MST) (see Table 1, column 9). MST experiments were performed on a Monolith NT 115 system (Nano Temper Technologies, Munich, Germany) using 100% LED and 60% IR-laser power (https://physiology.case.edu/media/eq manuals/eq_manual_nano-temper_mst_starting_guide.pdf, hereby incorporated by reference in its entirety for all purposes). The labeling of DDB1-BPB ([…]) was performed in labeling buffer with NHS-Red reactive dye (30 μM) (Nanotemper), which reacts efficiently with the primary amines of the proteins to form a stable dye protein conjugates. The labeling reaction was carried out at RT. A 16-point serial dilution (1:1) was prepared for compound at the final concentration ranged from 200 µM to 3 nM in PBS containing 0.05% tween. The samples were filled into Premium capillaries and measurements were conducted at 25° C. An equation implemented by the software MO-S002 MO Affinity Analysis, provided by the manufacturer, was used for fitting normalized fluorescence values at different concentrations of ligands.

[5] = system: CUL4A^high MDA-MB-468 breast cancer cells; experiment: Cell killing in CUL4-high MDA-MB-468 cells (CellTiter Glo); assay type: cell-based; settings: Homo sapiens, 8 days treatment
Method in brief: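 Cells seeded, treated after 24 h with DMSO or compound (0 to 20 μM). Medium and compound replaced every 48 h over 8 days. Viability measured by CellTiter-Glo luminescence; EC50 (50% killing) from log(inhibitor) vs response nonlinear fit.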

[6] = molecular target: T1, DDB1-BPB; experiment: Surface Plasmon Resonance (SPR) binding to DDB1-BPB; settings: DDB1-BPB immobilized
From the text: Kd represents dissociation constant, which measures the affinity of small molecule binding to the scaffold DDB1-BPB by Surface Plasmon Resonance (SPR) (https://www.bio-rad.com/webroot/web/pdf/lsr/literature/Bulletin_6414.pdf, hereby incorporated by reference in its entirety) (see Table 1, column 8). To assess the interaction between DDB1-BPB and compounds, a multi-parametric SPR instrument (BioRad ProteON XPR360) was used. DDB1-BPB was immobilized onto the GLH sensor surface in a variety of ways as follows: flow channels were activated in parallel with 1/20 diluted EDC/SNHS. DDB1-BPB was diluted to 0.1 mg/mL in sodium acetate pH 4.5 and directly coupled onto channel for 4 min. Excess reactive esters were blocked with a 5-min injection of 1 M ethanolamine. Mean immobilization levels were 17,000 RU with <2% variation along a strip. One channel was left unmodified to provide an additional reference surface. Next, the binding kinetics of compounds on surfaces was determined in a single injection using a “one-shot” kinetic mode. Typically, compound was prepared as a twofold serial dilution (0, 3.125, 6.25, 12.5, 25, 50 μM) and injected for 60 s at […]. Dissociation was monitored for 800 s. Surfaces were regenerated with multiple 30-s pulses of 60 mM phosphoric acid so that the experiment could be reproduced. All resulting sensor grams were collected and analyzed using the ProteOn manager software.

[7] = Dynamic light scattering (DLS) solubility assay; assay type: physicochemical; settings: normalized intensity ratio of 25 μM compound vs DMSO, in PBS
Method in brief: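 Compounds diluted from DMSO into PBS at final concentrations of 200 μM to 0.78 μM, in triplicate, and aggregation measured by light scattering intensity. A ratio above 2 scores insoluble (−), below 2 soluble (+), and around 2 (+/−).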

[8] = system: UV-induced CUL4-dependent DDB2 degradation in MEF-F-DDB2 cells; experiment: Cell-based assay for inhibition of UV-induced CUL4-dependent DDB2 degradation; set-up: key: (+) means that the normalized DDB2/α-tubulin ratio is higher in the compound treated sample than DMSO treated sample; (−) means that no change happens between compound treated sample with control sample; settings: DDB2/α-tubulin by Western blot
Method in brief: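 MEF cells expressing Flag-DDB2, in serum-free medium, treated with DMSO or compound, UV-irradiated (254 nm, 0.2 W/m^2), then harvested. Flag-DDB2 measured by western blot against α-tubulin; (+) denotes normalized DDB2/α-tubulin above DMSO, (−) no change.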

[9] = T47D cells, read-out: EC50 CUL4-Low Cells (cell killing)
[10] = 192 h, MDA-MB-468 cells, read-out: EC50 CUL4-High Cells (cell killing)

T1 sequence (Q16531 403-706): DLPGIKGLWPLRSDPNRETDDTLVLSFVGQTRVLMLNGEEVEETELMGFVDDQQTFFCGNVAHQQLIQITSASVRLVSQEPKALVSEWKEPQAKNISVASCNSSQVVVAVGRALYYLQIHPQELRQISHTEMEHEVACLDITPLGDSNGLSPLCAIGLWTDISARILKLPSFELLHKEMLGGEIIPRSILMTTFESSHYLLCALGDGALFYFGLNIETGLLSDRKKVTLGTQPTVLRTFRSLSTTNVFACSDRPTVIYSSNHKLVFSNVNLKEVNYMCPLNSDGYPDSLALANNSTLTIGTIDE
Chain of CUL4A-DDB1-BPB interaction (Q16531 403-706): as above

SMILES	IC50 [1] [µM]	Kd [4] [µM]	Kd [6] [µM]	AlphaLisa IC50 [1]	Solubility (DLS Assay) [7]	Kd (SPR) [6]	Kd (MST) [4]	EC50 [2, 9] [µM]	EC50 ([2]; T47D, Table 3, 0 to 20 μM compound, read-out: EC50 OF cell killing, T47D) [µM]	EC50 [3] [µM]	EC50 [5, 10] [µM]	EC50 ([5]; MDA-MB-468, 192 h, Table 3, 0 to 20 μM compound, read-out: EC50 OF cell killing, MDA-MB-468) [µM]	Degradation Inhibition (inhibition of UV-induced DDB2 degradation) [8]
CN(c1ccc(-c2nc(C(=O)O)cc3c2[nH]c2cc(F)ccc23)cc1)S(=O)(=O)c1ccccc1 [PA1-3, 7-fluoro-1-(4-(N-methylphenylsulfonamido)phenyl)-9H-pyrido[3,4-b]indole-3-carboxylic acid]	0.53	0.72	–	–	–	–	–	3.42	3.42	3.36	0.48	0.49	–
COC(=O)c1cccc(-c2nc(C(=O)OC(C)(C)C)cc3c2[nH]c2ccccc23)c1 [PA43]	–	–	–	Neg	-(insoluble)	no binding	–	48.2	–	–	28.3	–	–
O=C(O)c1cc2c([nH]c3ccccc32)c(-c2ccc(NCc3ccc(F)cc3)cc2)n1 [PA68, 1-[4-[(4-fluorophenyl)methylamino]phenyl]-9H-pyrido[3,4-b]indole-3-carboxylic acid]	2.33 ± 0.86	–	13.2	–	–	–	Insoluble	11	–	–	9.12	–	–
CS(=O)(=O)N(Cc1ccccc1)c1ccc(-c2nc(C(=O)O)cc3c2[nH]c2ccccc23)cc1 [PA76, 1-[4-[benzyl(methylsulfonyl)amino]phenyl]-9H-pyrido[3,4-b]indole-3-carboxylic acid]	1.52 ± 1.13	–	4.54	–	–	–	–	> 100	–	–	28.9	–	+

Continued, in another order:

IC50 [1] [µM]	Kd [4] [µM]	Kd [6] [µM]	AlphaLisa IC50 [1]	Solubility (DLS Assay) [7]	Kd (SPR) [6]	Kd (MST) [4]	SMILES	EC50 [2, 9] [µM]	EC50 ([2]; T47D, Table 3, 0 to 20 μM compound, read-out: EC50 OF cell killing, T47D) [µM]	EC50 [3] [µM]	EC50 [5, 10] [µM]	EC50 ([5]; MDA-MB-468, 192 h, Table 3, 0 to 20 μM compound, read-out: EC50 OF cell killing, MDA-MB-468) [µM]	Degradation Inhibition (inhibition of UV-induced DDB2 degradation) [8]
1.06 ± 0.51	–	5.58	–	–	–	–	CS(=O)(=O)c1ccc(-c2nc(C(=O)O)cc3c2[nH]c2ccccc23)cc1 [PA35, 1-(4-methylsulfonylphenyl)-9H-pyrido[3,4-b]indole-3-carboxylic acid]	> 100	–	–	> 100	–	–
0.73 ± 0.35	–	7.34	–	+/−	–	–	CS(=O)(=O)c1ccc(-c2nc(C(=O)O)cc3c2[nH]c2ccc(O)cc23)cc1 [PA73]	> 100	–	–	> 100	–	–

— patent US20250188078A1, “SMALL MOLECULE INHIBITORS OF THE CRL4 UBIQUITIN LIGASE” (Cornell University, priority 2022, published 2025)
